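Method: 48-hour compound exposure of cells in 96-well plates, five concentrations, linear interpolation of endpoints. Definition used: TGI = concentration required for complete inhibition of growth.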
What was measured:
Experiment in all cases: DTP human tumour cell line panel, 48 h
786-0 renal = system: 786-0 renal
A498 renal = system: A498 renal
A549 NSCLC = system: A549 NSCLC
ACHN renal = system: ACHN renal
BT-549 breast = system: BT-549 breast
CAKI-1 renal = system: CAKI-1 renal
CCRF-CEM leukemia = system: CCRF-CEM leukemia
COLO 205 colon = system: COLO 205 colon
DU-145 prostate = system: DU-145 prostate
EKVX NSCLC = system: EKVX NSCLC
HCC-2998 colon = system: HCC-2998 colon
HCT-116 colon = system: HCT-116 colon
HCT-15 colon = system: HCT-15 colon
HL-60(TB) leukemia = system: HL-60(TB) leukemia
HOP-62 NSCLC = system: HOP-62 NSCLC
HOP-92 NSCLC = system: HOP-92 NSCLC
HS 578T breast = system: HS 578T breast
HT29 colon = system: HT29 colon
IGROV1 ovarian = system: IGROV1 ovarian
K-562 leukemia = system: K-562 leukemia
KM12 colon = system: KM12 colon
LOX IMVI melanoma = system: LOX IMVI melanoma
M14 melanoma = system: M14 melanoma
MALME-3M melanoma = system: MALME-3M melanoma
MDA-MB-231 breast = system: MDA-MB-231 breast
MDA-MB-435 = system: MDA-MB-435
MDA-N = system: MDA-N
MOLT-4 leukemia = system: MOLT-4 leukemia
NCI-H226 lung = system: NCI-H226 lung
NCI-H23 lung = system: NCI-H23 lung
NCI-H460 lung = system: NCI-H460 lung
NCI-H522 lung = system: NCI-H522 lung
NCI/ADR-RES ovarian = system: NCI/ADR-RES ovarian
OVCAR-3 ovarian = system: OVCAR-3 ovarian
OVCAR-4 ovarian = system: OVCAR-4 ovarian
OVCAR-5 ovarian = system: OVCAR-5 ovarian
OVCAR-8 ovarian = system: OVCAR-8 ovarian
PC-3 prostate = system: PC-3 prostate
RXF 393 renal = system: RXF 393 renal
SF-268 CNS = system: SF-268 CNS
SF-295 CNS = system: SF-295 CNS
SF-539 CNS = system: SF-539 CNS
SK-MEL-2 melanoma = system: SK-MEL-2 melanoma
SK-MEL-28 melanoma = system: SK-MEL-28 melanoma
SK-MEL-5 melanoma = system: SK-MEL-5 melanoma
SK-OV-3 ovarian = system: SK-OV-3 ovarian
SN12C renal = system: SN12C renal
SNB-19 CNS = system: SNB-19 CNS
SNB-75 CNS = system: SNB-75 CNS
SR leukemia = system: SR leukemia
SW-620 colon = system: SW-620 colon
T-47D breast = system: T-47D breast
TK-10 renal = system: TK-10 renal
U251 CNS = system: U251 CNS
UACC-257 melanoma = system: UACC-257 melanoma
UACC-62 melanoma = system: UACC-62 melanoma
UO-31 renal = system: UO-31 renal
MCF7 breast = system: MCF7 breast
RPMI-8226 leukemia = system: RPMI-8226 leukemia

SMILES: O=[N+]([O-])c1ccc(NNN=Nc2ccc(-c3nc4ccccc4s3)cc2)c([N+](=O)[O-])c1
- TGI (786-0 renal): 50.6 µM
- TGI (A498 renal): 20.5 µM
- TGI (A549 NSCLC): > 100 µM
- TGI (ACHN renal): 57.3 µM
- TGI (BT-549 breast): 58.7 µM
- TGI (CAKI-1 renal): > 100 µM
- TGI (CCRF-CEM leukemia): > 100 µM
- TGI (COLO 205 colon): 31.5 µM
- TGI (DU-145 prostate): > 100 µM
- TGI (EKVX NSCLC): 44.4 µM
- TGI (HCC-2998 colon): 36.6 µM
- TGI (HCT-116 colon): 33.8 µM
- TGI (HCT-15 colon): 66.4 µM
- TGI (HL-60(TB) leukemia): 69.9 µM
- TGI (HOP-62 NSCLC): 48.4 µM
- TGI (HOP-92 NSCLC): 52.7 µM
- TGI (HS 578T breast): > 100 µM
- TGI (HT29 colon): 41.3 µM
- TGI (IGROV1 ovarian): 49.5 µM
- TGI (K-562 leukemia): 86.2 µM
- TGI (KM12 colon): > 100 µM
- TGI (LOX IMVI melanoma): 32.7 µM
- TGI (M14 melanoma): 35.2 µM
- TGI (MALME-3M melanoma): 77.6 µM
- TGI (MDA-MB-231 breast): 64.3 µM
- TGI (MDA-MB-435): 66.2 µM
- TGI (MDA-N): 35.3 µM
- TGI (MOLT-4 leukemia): 53.5 µM
- TGI (NCI-H226 lung): 69.4 µM
- TGI (NCI-H23 lung): 59.3 µM
- TGI (NCI-H460 lung): 56.3 µM
- TGI (NCI-H522 lung): 70.9 µM
- TGI (NCI/ADR-RES ovarian): 81.5 µM
- TGI (OVCAR-3 ovarian): 46.7 µM
- TGI (OVCAR-4 ovarian): > 100 µM
- TGI (OVCAR-5 ovarian): 71.5 µM
- TGI (OVCAR-8 ovarian): 72.5 µM
- TGI (PC-3 prostate): 73.3 µM
- TGI (RXF 393 renal): 50.5 µM
- TGI (SF-268 CNS): > 100 µM
- TGI (SF-295 CNS): 42.6 µM
- TGI (SF-539 CNS): 42.4 µM
- TGI (SK-MEL-2 melanoma): 41.8 µM
- TGI (SK-MEL-28 melanoma): > 100 µM
- TGI (SK-MEL-5 melanoma): 29.3 µM
- TGI (SK-OV-3 ovarian): > 100 µM
- TGI (SN12C renal): 50.8 µM
- TGI (SNB-19 CNS): > 100 µM
- TGI (SNB-75 CNS): 82.1 µM
- TGI (SR leukemia): 90.1 µM
- TGI (SW-620 colon): > 100 µM
- TGI (T-47D breast): > 100 µM
- TGI (TK-10 renal): > 100 µM
- TGI (U251 CNS): 76.3 µM
- TGI (UACC-257 melanoma): 36 µM
- TGI (UACC-62 melanoma): 27.7 µM
- TGI (UO-31 renal): 51.3 µM

SMILES: COc1cccc(/C=C2\S/C(=N/Nc3nc(-c4ccc([N+](=O)[O-])cc4)cs3)NC2=O)c1O
- TGI (786-0 renal): 38.9 µM
- TGI (A498 renal): 50.9 µM
- TGI (A549 NSCLC): 39.6 µM
- TGI (ACHN renal): 32.3 µM
- TGI (BT-549 breast): 20 µM
- TGI (CAKI-1 renal): 71.1 µM
- TGI (CCRF-CEM leukemia): 63.3 µM
- TGI (COLO 205 colon): 33 µM
- TGI (DU-145 prostate): 68.1 µM
- TGI (EKVX NSCLC): 43 µM
- TGI (HCC-2998 colon): 33.7 µM
- TGI (HCT-116 colon): 27.8 µM
- TGI (HCT-15 colon): 33.9 µM
- TGI (HL-60(TB) leukemia): > 100 µM
- TGI (HOP-62 NSCLC): 34.1 µM
- TGI (HOP-92 NSCLC): 33.6 µM
- TGI (HS 578T breast): 74.1 µM
- TGI (HT29 colon): 52.6 µM
- TGI (IGROV1 ovarian): 27.1 µM
- TGI (KM12 colon): 26.9 µM
- TGI (LOX IMVI melanoma): 17.1 µM
- TGI (M14 melanoma): 33.2 µM
- TGI (MALME-3M melanoma): 42.3 µM
- TGI (MCF7 breast): 38.2 µM
- TGI (MDA-MB-231 breast): 41.7 µM
- TGI (MDA-MB-435): 42.2 µM
- TGI (MDA-N): 57.5 µM
- TGI (MOLT-4 leukemia): > 100 µM
- TGI (NCI-H226 lung): 47.3 µM
- TGI (NCI-H23 lung): 33.5 µM
- TGI (NCI-H460 lung): 42 µM
- TGI (NCI/ADR-RES ovarian): 53.3 µM
- TGI (OVCAR-3 ovarian): 30.1 µM
- TGI (OVCAR-5 ovarian): 54.7 µM
- TGI (OVCAR-8 ovarian): 48.3 µM
- TGI (PC-3 prostate): 40.2 µM
- TGI (RPMI-8226 leukemia): 35.2 µM
- TGI (SF-268 CNS): 21.8 µM
- TGI (SF-295 CNS): 38.7 µM
- TGI (SF-539 CNS): 22 µM
- TGI (SK-MEL-28 melanoma): 39.5 µM
- TGI (SK-MEL-5 melanoma): 25.5 µM
- TGI (SK-OV-3 ovarian): 79.8 µM
- TGI (SN12C renal): 50.5 µM
- TGI (SNB-19 CNS): 52.9 µM
- TGI (SR leukemia): 74.9 µM
- TGI (SW-620 colon): 46.1 µM
- TGI (T-47D breast): 27.5 µM
- TGI (TK-10 renal): 67.6 µM
- TGI (U251 CNS): 7.66 µM
- TGI (UACC-257 melanoma): 71.2 µM
- TGI (UO-31 renal): 28.9 µM

SMILES: Cc1ccc2c(/C=C/c3ccc(N(C)C)cc3)ccc(C(C)C)cc1-2
- TGI (786-0 renal): > 100 µM
- TGI (A498 renal): > 100 µM
- TGI (A549 NSCLC): > 100 µM
- TGI (ACHN renal): > 100 µM
- TGI (BT-549 breast): > 100 µM
- TGI (CAKI-1 renal): > 100 µM
- TGI (CCRF-CEM leukemia): > 100 µM
- TGI (COLO 205 colon): > 100 µM
- TGI (DU-145 prostate): > 100 µM
- TGI (EKVX NSCLC): > 100 µM
- TGI (HCT-116 colon): > 100 µM
- TGI (HL-60(TB) leukemia): 88.3 µM
- TGI (HOP-62 NSCLC): > 100 µM
- TGI (HOP-92 NSCLC): > 100 µM
- TGI (HS 578T breast): > 100 µM
- TGI (HT29 colon): > 100 µM
- TGI (IGROV1 ovarian): > 100 µM
- TGI (K-562 leukemia): > 100 µM
- TGI (KM12 colon): > 100 µM
- TGI (LOX IMVI melanoma): > 100 µM
- TGI (M14 melanoma): > 100 µM
- TGI (MALME-3M melanoma): > 100 µM
- TGI (MCF7 breast): > 100 µM
- TGI (MDA-MB-231 breast): > 100 µM
- TGI (MDA-MB-435): > 100 µM
- TGI (MDA-N): > 100 µM
- TGI (MOLT-4 leukemia): > 100 µM
- TGI (NCI-H226 lung): > 100 µM
- TGI (NCI-H23 lung): > 100 µM
- TGI (NCI-H522 lung): > 100 µM
- TGI (NCI/ADR-RES ovarian): > 100 µM
- TGI (OVCAR-3 ovarian): > 100 µM
- TGI (OVCAR-5 ovarian): > 100 µM
- TGI (OVCAR-8 ovarian): > 100 µM
- TGI (PC-3 prostate): > 100 µM
- TGI (RPMI-8226 leukemia): > 100 µM
- TGI (RXF 393 renal): > 100 µM
- TGI (SF-268 CNS): > 100 µM
- TGI (SF-295 CNS): > 100 µM
- TGI (SK-MEL-2 melanoma): > 100 µM
- TGI (SK-MEL-28 melanoma): > 100 µM
- TGI (SK-MEL-5 melanoma): > 100 µM
- TGI (SK-OV-3 ovarian): > 100 µM
- TGI (SN12C renal): > 100 µM
- TGI (SNB-75 CNS): > 100 µM
- TGI (SR leukemia): > 100 µM
- TGI (SW-620 colon): > 100 µM
- TGI (T-47D breast): > 100 µM
- TGI (TK-10 renal): > 100 µM
- TGI (U251 CNS): > 100 µM
- TGI (UACC-257 melanoma): > 100 µM
- TGI (UACC-62 melanoma): > 100 µM
- TGI (UO-31 renal): > 100 µM

Source: PubChem BioAssay (NCI)
